Assay results from patent publication US8367873B2, “Phenyl-substituted bicyclooctane-1,3-dione derivatives” (Bayer Cropscience AG, priority 2008, dated 2013).
Values joined by “and” are separate entries in the source; they are usually repeats but may differ in a detail not shown here. Equal values may be shown once.

Columns and labels:
[1] = tested on: monocotylidonous and dicotylidonous weed and crop plants; assay: Herbicidal post-emergence action (other test plants); type: in vivo; details: post-emergence method
Summary of the method: (§1)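 One-leaf-stage greenhouse plants sprayed with WP at graded amounts (600 l/ha, 0.2% wetting agent); ~3 wk later, visual % effect rated vs untreated controls, 100% = dead, 0% = like control.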

[2] = tested on: monocotylidonous and dicotylidonous weed and crop plants; assay: Herbicidal pre-emergence action (other test plants); type: in vivo; details: pre-emergence method, 80 g/ha, greenhouse, visual assessment vs untreated controls
Summary of the method: (§2)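 Test compounds, as wettable powder suspensions with 0.2% wetting agent at a water rate of 600 l/ha, were applied in different amounts to the covering soil over freshly sown seeds in sandy loam. Emergence damage was rated visually in percent against untreated plants after three weeks under greenhouse conditions.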

[3] = tested on: Echinocloa crus-galli; assay: Herbicidal pre-emergence action; type: in vivo; details: pre-emergence method, 80 g/ha, greenhouse, visual assessment vs untreated controls
Summary of the method: as §2

[4] = tested on: Alopecurus myosuroides; assay: Herbicidal pre-emergence action; type: in vivo; details: pre-emergence method, 80 g/ha, greenhouse, visual assessment vs untreated controls
Summary of the method: as §2

[5] = tested on: Setaria viridis; assay: Herbicidal pre-emergence action; type: in vivo; details: pre-emergence method, 80 g/ha, greenhouse, visual assessment vs untreated controls
Summary of the method: as §2

[6] = tested on: Lolium multiflorum; assay: Herbicidal pre-emergence action; type: in vivo; details: pre-emergence method, 80 g/ha, greenhouse, visual assessment vs untreated controls
Summary of the method: as §2

[7] = Penetration of active compounds through enzymatically isolated cuticles of apple tree leaves; type: in vitro ADME, apple trees of the cultivar Golden Delicious; details: 20° C., 60% rh
Experimental: Increase of penetration into the plant by ammonium or phosphonium salts and synergistic increase of penetration into the plant by ammonium/phosphonium salts in combination with penetrants.
In this test, the penetration of active compounds through enzymatically isolated cuticles of apple tree leaves was measured.
Use was made of leaves which, fully developed, were cut from apple trees of the cultivar Golden Delicious. The cuticles were isolated by • initially filling leaf discs punched out and stained with dye on the underside by vacuum infiltration with a pectinase solution (0.2 to 2% strength) buffered to a pH between 3 and 4, • […] allowing the leaf discs treated in this manner to stand until the original leaf structure has dissolved and the non-cellular cuticles have detached.
Only the cuticles, free from hairs and stoma, of the upper sides of the leaves were then used. They were washed repeatedly alternating with water and a buffer solution of pH 7. The clean cuticles obtained were then mounted on Teflon plates and smoothed and dried with a gentle stream of air.
In the next step, the cuticle membranes obtained in this manner were placed into stainless steel diffusion cells (=transport chambers) for membrane transport studies. To this end, the cuticles were placed with a pincet into the centre of the edges, coated with silicone fat, of the diffusion cells and closed with a ring, which had also been treated with fat. The arrangement was chosen such that the morphological outside of the cuticles was facing outwards, i.e. exposed to air, whereas the original inside was facing the interior of the diffusion cells.
The diffusion cells were filled with a 30% strength ethylene glycol/water solution. To determine the penetration, in each case 10 μl of the spray liquor of the composition below were applied to the outside of the cuticles. The spray liquor was prepared using local tap water of medium hardness.
After the spray liquors had been applied, the water was allowed to evaporate and the chambers were inverted and placed into thermostatic […] in which temperature and atmospheric humidity over the cuticles could be adjusted using a gentle stream of air onto the cuticles with the spray coating (20° C., 60% rh). At regular intervals, an autosampler took aliquots and the active compound content was determined by HPLC.
The stated numbers are average values of eight to ten measurements.

[8] = tested on: Echinocloa crus-galli; assay: Herbicidal post-emergence action; type: in vivo; details: post-emergence method
Summary of the method: as §1

[9] = tested on: Alopecurus myosuroides; assay: Herbicidal post-emergence action; type: in vivo; details: post-emergence method
Summary of the method: as §1

[10] = tested on: Lolium multiflorum; assay: Herbicidal post-emergence action; type: in vivo; details: post-emergence method
Summary of the method: as §1

[11] = tested on: maize; assay: Crop compatibility small plot trial outdoors with maize, post-emergence, with and without safener; type: in vivo; details: 60 g ai/ha (with safener 60 + 60)
Experimental: Method crop compatibility small plot trial outdoors: • Customary sowing using a single seed seeder • Plot size: 11.25 m^2/two repetitions
Treatment was carried out using a plot sprayer. The safener was applied together with the test substance as a tank mix using 300 l of water/ha (amounts of herbicide and safener are stated in g of ai/ha). Post-emergence application was carried out at the five-leaf stage of maize. Crop compatibility was assessed visually 14 and 27 days after the treatment (in percent compared to an untreated control), 100% damage=the plants have died, 0% damage=like control plants). • Outside trial with maize (Magixx Duo is cycloxidim-tolerant) • Post-Emergence Method

[12] = tested on: cereals; assay: Container trials with cereals in the greenhouse, use of safeners (Mefenpyr 1 day prior to herbicide application); type: in vivo; details: 10 days after application
Summary of the method: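 Cereal crop seeds were sown in sandy loam in wood fibre pots and grown in a greenhouse. Before herbicide treatment, the crop plants were sprayed with the safener at a set rate per hectare. Test compounds formulated as wettable powders were sprayed onto green plant parts at 600 l/ha water with 0.2% wetting agent. Damage was rated visually in percent against untreated controls, where 100% means dead plants.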

[13] = tested on: Setaria viridis; assay: Herbicidal post-emergence action; type: in vivo; details: post-emergence method, 80 g/ha
Summary of the method: as §1

SMILES: CCc1cc(C)cc(CC)c1C1=C(O)[C@H]2C[C@@]3(COC(C)(C)O3)C[C@H]2C1=O [I-a-1]
- pest or weed control at 80 g/ha ([1]; 504 h, Avena fatua, read-out: herbicidal effect against AVEFA (Avena fatua)): 90%
- herbicidal effect AVEFA [2]: 80%
- herbicidal effect ECHCG [3]: 50%
- herbicidal effect ALOMY [4]: 90%
- herbicidal effect SETVI [5]: 60%
- herbicidal effect LOLMU [6]: 100%
- Penetration after 24 h ([7]; a.i. (0.2 g/l) + AS = ammonium sulphate (0.7 g/l)): 4%
- Penetration after 24 h ([7]; a.i. (0.2 g/l) + Edenor ME SU 500 EW (2 g/l) + AS (0.7 g/l)): 13%
- Penetration after 24 h ([7]; a.i. (0.2 g/l) + Edenor Me SU 500 EW (2 g/l)): 11.5%
- Penetration after 24 h ([7]; a.i. (0.2 g/l) alone, average of eight to ten measurements): 2.5%
- pest or weed control at 80 g/ha ([8]; Echinochloa crus-galli, 504 h, read-out: herbicidal effect against ECHCG (Echinochloa crus-galli)): 100%
- pest or weed control at 80 g/ha ([9]; Alopecurus myosuroides, 504 h, read-out: herbicidal effect against ALOMY (Alopecurus myosuroides)): 100%
- pest or weed control at 80 g/ha ([10]; Lolium multiflorum, 504 h, read-out: herbicidal effect against LOLMU (Lolium multiflorum)): 100%

SMILES: CCc1cc(C)cc(CC)c1C1=C(O)[C@H]2CC3(C[C@H]2C1=O)OCCO3 (relative stereo) [I-a-8]
- herbicidal effect against AVEFA (Avena fatua) ([1]; 80 g/ha): 100%
- herbicidal effect AVEFA [2]: 60%
- herbicidal effect ECHCG [3]: 90%
- herbicidal effect ALOMY [4]: 100%
- herbicidal effect SETVI [5]: 90%
- herbicidal effect LOLMU [6]: 100%
- % damage ([11]; maize cultivar Magixx Duo (cycloxidim-tolerant), 14 days after application): 0%
- % damage ([11]; maize cultivar Magixx Duo (cycloxidim-tolerant), 27 days after application): 0%
- % damage ([11]; maize cultivar Oldham, 14 days after application): 94%
- % damage ([11]; maize cultivar Oldham, 27 days after application): 93%
- Summer barley observed (%) ([12]; 25 g of a.i./ha): 10%
- Summer barley observed (%) ([12]; 50 g of a.i./ha): 20%
- Summer barley observed (%) ([12]; 100 g of a.i./ha): 20%
- Summer wheat observed (%) ([12]; 12.5 g of a.i./ha): 20%
- Summer wheat observed (%) ([12]; 25 g of a.i./ha): 40% and 20%
- Summer wheat observed (%) ([12]; 50 g of a.i./ha): 50% and 30%
- Summer wheat observed (%) ([12]; 100 g of a.i./ha): 60% and 30%
- herbicidal effect against ECHCG (Echinochloa crus-galli) ([8]; 80 g/ha): 100%
- herbicidal effect against ALOMY (Alopecurus myosuroides) ([9]; 80 g/ha): 100%
- herbicidal effect against SETVI (Setaria viridis) [13]: 100%
- herbicidal effect against LOLMU (Lolium multiflorum) ([10]; 80 g/ha): 100%
